Measured values taken from patent US20210108198A1, “APPLICATION OF COMPOUND OR TRADITIONAL CHINESE MEDICINE EXTRACT IN PREPARATION OF NUCLEIC ACID DELIVERY AGENT AND RELATED PRODUCTS THEREOF” (INSTITUTE OF BASIC MEDICAL SCIENCES CHINESE ACADEMY OF …, priority 2017, published 2021).
Entries after “also recorded” stand apart in the source; their conditions may differ.

Columns and labels:
A549 cells = test: Digital PCR (ddPCR) detection of the efficiency of nucleic acid delivery by lipid; type: cell-based, human
Procedure: (§1) 2.2 Experimental method: the total cellular RNA was collected and extracted by TRIzol lysis buffer according to the above methods, and reverse transcribed to cDNA using High capacity cRNA Reverse Transcription Kit, and the cDNA from different groups was subject to digital PCR reaction. Refering to the QX200 Droplet Reader and QuantaSoft Software manual for the protocols, the results were analyzed using QuantaSoft software.
as §1, with “method:” for “method: the”, “total” for “total cellular”, “method,” for “methods,”, “subjected” for “subject”, “Refer” for “Refering”, “protocols;” for “protocols,”
(§2) 2.2 Experimental method: Total RNA was collected and extracted by TRIzol lysis buffer according to the above method, and reverse transcribed to cDNA using TaqMan™ MicroRNA Reverse Transcription KitHigh, and the cDNA from different groups was subjected to digital PCR reaction. Refer to the QX200 Droplet Reader and QuantaSoft Software manual for the protocols; the results were analyzed using QuantaSoft software.
as §2, with “reversed” for “reverse transcribed”, “High capacity cRNA” for “TaqMan™ MicroRNA”, “Kit,” for “KitHigh,”

[1] = test system: protein expression of the corresponding knockdown genes in A549 cells; test: Western blot of knockdown genes after lipid-mediated siRNA delivery into A549 cells; type: cell-based, human; settings: LAMP2, XPN2, Ssu72, CPSF4 or β-actin siRNA 400 nM; reverse evaporation method; FIG. 82
Procedure: 3.3.1 MRC-5 cell (pulmonary embryonic fibroblast), and A549 cell (human lung adenocarcinoma cell) were cultured to logarithmic growth phase, and then plated into 12-well plates at a cell density of 6×10^5/1 mL medium/well; MRC-5 cells were cultured in Eagle's MEM medium (MEM, Gibco); A549 cells were cultured in Ham's F-12 medium (HyClone); followed by incubation overnight at 37° C., and the follow-up experiments were performed after the cells were attached to the walls.
4) Lipid nucleic acid mixture: the mixture of lipid and nucleic acid prepared from the step 2 were added into cells and mixed, and the final concentration of nucleic acid was 400 nM.
3.3.3 After 24 hours of treatment, the cells were stimulated with the stimulant (1 μg/mL poly (I:C) (P1530, Sigma-Aldrich) as double-stranded RNA viruses mimetics) or 3 ng/mL transforming growth factor TGFβ1 (Pepro Tech)). […]

## CCCCCCCCCCCCCCCCCCC[C@@H](O)[C@@H](N)CO [No. 41, Sphinganine (d22:0)]
A549 cells; boiling method, 6 hours
  delivery of HJT-sRNA-m7 dsRNA (ddPCR): could effectively deliver HJT-sRNA-m7 dsRNA into A549 cells; also recorded: the boiling method had better effects than reverse evaporation method
A549 cells; reverse evaporation method, 6 hours (No. 39: 6 hours, 12 hours)
  delivery of HJT-sRNA-m7 dsRNA (ddPCR): could effectively deliver HJT-sRNA-m7 dsRNA into A549 cells
[1]
  protein knockdown effect (Western blot): significantly higher than the inhibitory effect of HJT-sRNA-m7 mediated by RNAiMAX
